{"source": "patent US7160916B2", "about": "“Method of increasing bone density or treating osteoporosis” (Yung Shin Pharmaceutical Ind. Co., Ltd., priority 2003, dated 2007)", "key": {"Male SD rats": {"test_system": "Male SD rats", "assay": "Local injection into proximal tibia, bone histomorphometry (bone growth)", "type": "in vivo, rat", "conditions": "L-NAME 0.6 nmole/day given with Indazole 1, versus Indazole 1 alone", "protocol": "Assay of bone resorption of osteoclast: Osteoclast precursors were isolated from rat long bones as mentioned above. The cells were re-suspended in a complete DMEM medium and plated into a calcium phosphate apatite-coated 24-well plate, OAAS (Oscotec, OCT USA Inc.) at 1×10^6 cells/0.5 ml/well. The cells were cultured for 5 days in the presence of M-CSF (20 ng/ml) plus sRANKL (50 ng/ml). Indazole 1 was injected daily for additional 3 days in the absence of M-CSF and sRANKL. Culture was terminated on day 8 and the remaining cells in the plate were lysed using 1 N NaOH. Five images per well were obtained using an inverted microscope (200×), and resorbed area was measured using an image analyzer. Local injection Male SD rats weighing 70–88 gm were used. Implantation of a cannula (22G) was done from the posteriolateral side into the proximal tibial metaphysis in both limbs of rats anesthetized with pentobarbital. The cannula had its outer end in the subcutaneous tissue. Indazole 1 was percutaneously injected through the cannula into the proximal tibia once/day for 1 week. The same concentration of DMSO diluted with normal saline was injected into the right side for comparison. On day 14, the rats were sacrificed and tibiae were fixed in 10% formaldehyde for 48 h at 4° C. Bone histomorphometry: After formalin fixation of tibia was completed, the tibiae were then decalcified in 0.5 N hydrochloric acid, dehydrated in an ascending series of ethanol solution and acetone, and embedded in paraffin. Serial sections (5 μm) were cut longitudinally and stained with Mayer's hematoxylin-eosin solution (Yang et al. (1993) Calcif Tissue Int 52:57–61). Images of the growth plate and proximal tibia were photographed using a photoMicroGraphic Digitize integrate System (MGDS; Total-Integra Technology Co., Ltd., Taipei, Taiwan). Bone volume measurements were performed on the whole secondary spongiosa, which is located under the primary spongiosa and characterized by a network of larger trabeculae. Bone volumes were calculated using an image analysis software. All measurements were done in a single-blind fashion. Bone growth: Male young rats (SD) weighing 70–90 gm were divided into six groups. The average weight of the rats in each group was 73.9±1.1 gm. Indazole 1 was dissolved in DMSO and diluted with saline to a final concentration of 10 μM. One of the six groups was a control group, and the other groups were punctuated with a needle cannula alone, injected with a vehicle using a needle cannula (day 1, once), injected with Indazole 1 (day 1, once), injected with a vehicle using a needle cannula (days 1–7, daily), and injected with Indazole 1 (days 1–7, daily), respectively. […] Trabecular bone in the secondary spongiosa increased by 90% after local injection of Indazole 1 for 7 days."}, "Primary osteoblast cells": {"test_system": "Primary osteoblast cells", "assay": "Assay of alkaline phosphatase activity in cultured osteoblasts", "type": "cell-based, rat", "protocol": "Primary osteoblast cultures: Primary osteoblast cells were prepared from calvaria of 18-day-old fetal Sprague-Dawley (SD) rats according to the following method: Pregnant rats were put in anesthesia using intraperitoneal injection of trichloroacetaldehyde (200 mg/kg). The calvaria of the fetal rats were then dissected with aseptic technique. Soft tissues were removed under a dissecting microscope. The calvaria were divided into small pieces and then treated with 0.1% collagenase (Sigma Chemical, St. Louis, Mo.) solution for 10 minutes at 37° C. The cells released from the calvariae by two 20-minute sequential collagenase digestions were pooled and filtered through 70 μm nylon filters (Falcon, BD BioSciences, San Jose, Calif.). The cells were then grown on plastic cell culture dishes in 95:5 air-CO2 with Dulbecco's modified Eagle's medium (DMEM) (Gibco, Grand Island, N.Y.) which was supplemented with 20 mM HEPES and 10% heat-inactivated FCS, 2 mM-glutamine, penicillin (100 U/ml) and streptomycin (100 μg/ml) (pH adjusted to 7.6). The cell medium was changed twice a week. Osteoblasts were confirmed by morphology and expression of alkaline phosphatase (ALP). To examine the maturation of osteoblasts, cells were cultured for up to 14 days in a growth medium containing ascorbic acid (50 μg/ml) (Sigma Chemical, St. Louis, Mo.) and β-glycerophosphate (10 mM) (Sigma Chemical, St. Louis, Mo.) and the medium was changed every 3 day. Assay of alkalinephosphatase activity: Cells cultured in 6-well plates in the presence or absence of Indazole 1 were harvested in 1 ml of 0.2% Nonidet P-40 and cell suspension was disrupted by sonication. After centrifugation at 1500 g for 5 min, ALP activity in the supernatant was measured by the method of Lowry et al (1954) J Biol Chem 207:19–37."}}, "data": [{"smiles": "COC(=O)[C@@H](N)CCCNC(=N)N[N+](=O)[O-]", "note": "[L-NAME, N^G-nitro-L-arginine-methylester, reference compound]", "values": [{"measurement": "effect on enhancement of bone formation in the secondary spongiosa by Indazole 1", "setting": "Male SD rats", "result": "significantly attenuated"}, {"measurement": "effect on the increase of ALP activity by Indazole 1", "setting": "Primary osteoblast cells; L-NAME 60 μM", "result": "antagonized"}]}, {"smiles": "O=c1onc2cnc3ccccc3n12", "note": "[ODQ]", "values": [{"measurement": "effect on the increase of ALP activity by Indazole 1", "setting": "Primary osteoblast cells; ODQ 20 μM", "result": "antagonized"}]}, {"smiles": "COC(=O)[C@@]1(OC)C[C@H]2O[C@]1(C)n1c3ccccc3c3c4c(c5c6ccccc6n2c5c31)C(=O)N(C)C4", "note": "[KT5823]", "values": [{"measurement": "effect on the increase of ALP activity by Indazole 1", "setting": "Primary osteoblast cells; KT5823 2 μM", "result": "antagonized"}]}]}
